From patent US10294207B2, “Pyrazole derivatives as TNIK, IKKϵ and TBK1 inhibitor and pharmaceutical composition comprising same” (GREEN CROSS CORPORATION, priority 2015, dated 2019)
Where a name gives a salt, the structure may show the parent alone.

Key:
[1] = biological target: T1, TBK1 (Homo sapiens, UniProt Q9UHD2); assay: TBK1 inhibition, ADP-Glo Kinase Assay; type: biochemical; settings: luminometer
T1 construct: purchased Promega V3991
T1 sequence (Q9UHD2 1-729): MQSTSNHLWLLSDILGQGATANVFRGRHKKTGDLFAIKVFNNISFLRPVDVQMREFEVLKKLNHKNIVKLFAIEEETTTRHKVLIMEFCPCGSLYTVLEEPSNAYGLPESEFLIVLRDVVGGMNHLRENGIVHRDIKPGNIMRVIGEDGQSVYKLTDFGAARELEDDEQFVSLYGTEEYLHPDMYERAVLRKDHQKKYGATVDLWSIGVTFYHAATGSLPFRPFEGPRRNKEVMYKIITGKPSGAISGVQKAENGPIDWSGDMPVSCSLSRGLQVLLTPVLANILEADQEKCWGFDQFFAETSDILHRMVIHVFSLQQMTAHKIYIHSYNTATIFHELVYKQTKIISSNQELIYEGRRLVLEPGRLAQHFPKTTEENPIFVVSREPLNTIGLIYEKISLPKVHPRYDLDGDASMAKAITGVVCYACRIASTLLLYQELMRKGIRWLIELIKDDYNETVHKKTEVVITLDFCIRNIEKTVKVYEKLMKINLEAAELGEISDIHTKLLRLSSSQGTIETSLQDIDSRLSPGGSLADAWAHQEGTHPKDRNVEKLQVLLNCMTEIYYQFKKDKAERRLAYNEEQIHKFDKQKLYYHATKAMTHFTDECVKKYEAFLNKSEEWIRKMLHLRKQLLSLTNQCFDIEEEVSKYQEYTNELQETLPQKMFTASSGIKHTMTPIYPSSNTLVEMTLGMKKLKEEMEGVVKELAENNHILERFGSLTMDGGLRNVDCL
Description: (§1) Inhibition activities on TNIK, IKKε and TBK1 were evaluated using the compounds of Examples 1 to 254.
(§2) The inhibition activities on TNIK, IKKε and TBK1 were measured by a luminometer, TNIK/IKKε/TBK1 Kinase Enzyme System (Promega, Ca# V4158; Invitrogen, PR8031B, Promega, Ca# V3991) and ADP-Glo Kinase Assay using ADP-Glo™ Kinase Analysis Kit (Promega, Ca# V9101) and a kinase reaction buffer [40 mM Tris(pH 7.5), 20 mM MgCl2, 0.1 mg/mL BSA] in accordance with the manufacturer's protocol.

[2] = biological target: T2, IKKε (Homo sapiens, UniProt Q14164); assay: IKKε inhibition, ADP-Glo Kinase Assay; type: biochemical; settings: luminometer
T2 construct: purchased Invitrogen PR8031B
T2 sequence (Q14164 1-716): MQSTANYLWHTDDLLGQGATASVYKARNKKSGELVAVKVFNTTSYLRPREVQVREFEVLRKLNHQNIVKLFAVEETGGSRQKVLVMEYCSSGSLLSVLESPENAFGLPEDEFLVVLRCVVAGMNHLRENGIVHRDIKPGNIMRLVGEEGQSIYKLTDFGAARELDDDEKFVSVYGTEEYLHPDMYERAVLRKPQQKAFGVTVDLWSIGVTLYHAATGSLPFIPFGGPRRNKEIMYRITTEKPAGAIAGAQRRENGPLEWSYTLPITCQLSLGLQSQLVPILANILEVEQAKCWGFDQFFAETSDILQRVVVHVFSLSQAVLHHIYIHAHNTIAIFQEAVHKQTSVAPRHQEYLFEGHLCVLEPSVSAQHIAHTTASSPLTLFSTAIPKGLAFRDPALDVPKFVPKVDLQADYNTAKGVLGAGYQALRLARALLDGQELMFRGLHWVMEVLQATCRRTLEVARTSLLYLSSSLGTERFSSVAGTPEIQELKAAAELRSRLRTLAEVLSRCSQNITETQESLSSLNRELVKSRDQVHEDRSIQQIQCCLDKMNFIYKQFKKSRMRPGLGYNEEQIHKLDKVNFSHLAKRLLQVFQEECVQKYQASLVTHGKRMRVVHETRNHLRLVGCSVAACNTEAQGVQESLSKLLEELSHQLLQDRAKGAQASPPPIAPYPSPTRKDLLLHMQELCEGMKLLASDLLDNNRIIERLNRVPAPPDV
Description: as §1, §2

Compound	IC50 [1]	IC50 [2]
CN1CCN(c2ccc(C(=O)Nc3n[nH]c4ccc(C(=O)NC(c5ccccn5)C5CC5)cc34)cc2)CC1 (stereo not drawn) [Example 140, N-(Cyclopropyl(pyridin-2-yl)methyl)-3-(4-(4-methylpiperazin-1-yl)benzamido)-1H-indazole-5-carboxamide]	0.084 µM	0.27 µM
CC(C)(NC(=O)c1ccc2[nH]nc(NC(=O)c3ccc(N4CCOCC4)cc3)c2c1)c1ccccc1 [Example 62, 3-(4-Morpholinobenzamido)-N-(2-phenylpropan-2-yl)-1H-indazole-5-carboxamide]	0.011 µM	0.032 µM
CCC(NC(=O)c1ccc2[nH]nc(NC(=O)c3ccc(N4CCC(OC)CC4)cc3)c2c1)c1cccs1 (stereo not drawn) [Example 110, 3-(4-(4-methoxypiperidin-1-yl)benzamido)-N-(1-(thiophen-2-yl)propyl)-1H-indazole-5-carboxamide]	0.0072 µM	0.036 µM
CN1CCN(c2ccc(C(=O)Nc3n[nH]c4ccc(C(=O)NCc5ccccc5)cc34)cc2)CC1 [Example 40, N-Benzyl-3-(4-(4-methylpiperazin-1-yl)benzamido)-1H-indazole-5-carboxamide]	0.00094 µM	0.0089 µM
CC(NC(=O)c1ccc2[nH]nc(NC(=O)c3ccc(N4CCOCC4)cc3)c2c1)c1cccnc1 (stereo not drawn) [Example 52, 3-(4-Morpholinobenzamido)-N-(1-(pyridin-3-yl)ethyl)-1H-indazole-5-carboxamide]	0.014 µM	> 10 µM
CC[C@H](NC(=O)c1ccc2[nH]nc(NC(=O)c3ccc(N4CCN(C)CC4)cc3)c2c1)c1ccccc1 [Example 190, (S)-3-(4-(4-Methylpiperazin-1-yl)benzamido)-N-(1-phenylpropyl)-1H-indazole-5-carboxamide]	0.34 µM	1.23 µM
CN1CCN(c2ccc(C(=O)Nc3n[nH]c4ccc(C(=O)NCc5ccccn5)cc34)cc2)CC1 [Example 85, 3-(4-(4-Methylpiperazin-1-yl)benzamido)-N-(pyridin-2-ylmethyl)-1H-indazole-5-carboxamide bis(2,2,2-trifluoroacetate)]	0.16 µM	1.63 µM
Cc1ccc(CNC(=O)c2ccc3[nH]nc(NC(=O)c4ccc(N5CCN(C)CC5)cc4)c3c2)s1 [Example 61, 3-(4-(4-Methylpiperazin-1-yl)benzamido)-N-((5-methylthiophen-2-yl)methyl)-1H-indazole-5-carboxamide]	0.056 µM	0.23 µM
CN1CCN(c2ccc(C(=O)Nc3n[nH]c4ccc(C(=O)NCc5ccncc5)cc34)cc2)CC1 [Example 121, 3-(4-(4-Methylpiperazin-1-yl)benzamido)-N-(pyridin-4-ylmethyl)-1H-indazole-5-carboxamide]	0.0063 µM	0.11 µM
O=C(Nc1n[nH]c2ccc(CNCc3cccs3)cc12)c1ccc(F)cc1 [Example 31, 4-Fluoro-N-(5-(((thiophen-2-ylmethyl)amino)methyl)-1H-indazol-3-yl)benzamide Hydrochloride]	> 10 µM	–
O=C(NCc1cccs1)c1ccc2[nH]nc(NC(=O)c3ccc(F)cc3)c2c1 [Example 36, 3-(4-Fluorobenzamido)-N-(thiophen-2-ylmethyl)-1H-indazole-5-carboxamide]	0.089 µM	–
CCC(NC(=O)c1ccc2[nH]nc(NC(=O)c3ccc(F)cc3)c2c1)c1cccs1 (stereo not drawn) [Example 17, 3-(4-Fluorobenzamido)-N-(1-(thiophen-2-yl)propyl)-1H-indazole-5-carboxamide]	0.013 µM	–
CC(C)(C)OC(=O)N1CCC[C@H]1C(=O)Nc1ccc(C(=O)Nc2n[nH]c3ccc(C(=O)NCc4cccs4)cc23)cc1 [Example 210, tert-Butyl (S)-2-((4-((5-((thiophen-2-ylmethyl)carbamoyl)-1H-indazol-3-yl)carbamoyl)phenyl)carbamoyl)pyrrolidine-1-carboxylate]	0.12 µM	–
COc1ccc(C(=O)Nc2n[nH]c3ccc(NCc4cccs4)cc23)cc1 [Example 11, 4-Methoxy-N-(5-((thiophen-2-ylmethyl)amino)-1H-indazol-3-yl)benzamide]	0.89 µM	–
O=C(NCc1ccncc1)c1ccc2[nH]nc(NC(=O)c3ccc(N4CCOCC4)cc3)c2c1 [Example 120, 3-(4-Morpholinobenzamido)-N-(pyridin-4-ylmethyl)-1H-indazole-5-carboxamide]	0.019 µM	–
O=C(NCc1cccs1)c1ccc2[nH]nc(NC(=O)c3ccc(N4CCOCC4)cc3N3CCOCC3)c2c1 [Example 168, 3-(2,4-Dimorpholinobenzamido)-N-(thiophen-2-ylmethyl)-1H-indazole-5-carboxamide]	6.6 µM	–
O=C(NCc1cccs1)c1ccc2[nH]nc(NC(=O)c3ccc(NC4CCCC4)cc3)c2c1 [Example 163, 3-(4-(Cyclopentylamino)benzamido)-N-(thiophen-2-ylmethyl)-1H-indazole-5-carboxamide]	0.036 µM	–
O=C(Nc1n[nH]c2ccc(C(=O)NC(c3cccs3)C3CC3)cc12)c1ccc(F)cc1 (stereo not drawn) [Example 30, N-(Cyclopropyl(thiophen-2-yl)methyl)-3-(4-fluorobenzamido)-1H-indazole-5-carboxamide]	0.036 µM	–
Nc1ccc(C(=O)Nc2n[nH]c3ccc(C(=O)NCc4cccs4)cc23)cc1 [Example 205, 3-(4-Aminobenzamido)-N-(thiophen-2-ylmethyl)-1H-indazole-5-carboxamide]	0.003 µM	–
O=C1CC(C(=O)Nc2ccc(C(=O)Nc3n[nH]c4ccc(C(=O)NCc5cccs5)cc34)cc2)C1 [Example 208, 3-(4-(3-Oxocyclobutanecarboxamido)benzamido)-N-(thiophen-2-ylmethyl)-1H-indazole-5-carboxamide]	0.027 µM	–
O=C(NCc1cccs1)c1ccc2[nH]nc(NC(=O)c3ccc(NC(=O)C4CCC4)cc3)c2c1 [Example 206, 3-(4-(Cyclobutanecarboxamido)benzamido)-N-(thiophen-2-ylmethyl)-1H-indazole-5-carboxamide]	0.026 µM	–
O=C(NCc1cccs1)c1ccc2[nH]nc(NC(=O)c3ccc(NC(=O)C4(C(F)(F)F)CC4)cc3)c2c1 [Example 207, N-(Thiophen-2-ylmethyl)-3-(4-(1-(trifluoromethyl)cyclopropanecarboxamido)benzamido)-1H-indazole-5-carboxamide]	0.038 µM	–
O=C(NCc1cccs1)c1ccc2[nH]nc(NC(=O)c3cccc([N+](=O)[O-])c3)c2c1 [Example 204, 3-(3-Nitrobenzamido)-N-(thiophen-2-ylmethyl)-1H-indazole-5-carboxamide]	0.077 µM	–
CN1CCN(c2ccc(C(=O)Nc3n[nH]c4ccc(C(=O)NCc5cccs5)cc34)c(F)c2)CC1 [Example 170, 3-(2-Fluoro-4-(4-methylpiperazin-1-yl)benzamido)-N-(thiophen-2-ylmethyl)-1H-indazole-5-carboxamide]	> 10 µM	–
CSc1ccc(C(=O)Nc2n[nH]c3ccc(C(=O)NCc4cccs4)cc23)cc1 [Example 6, 3-(4-(Methylthio)benzamido)-N-(thiophen-2-ylmethyl)-1H-indazole-5-carboxamide]	0.025 µM	–
O=C(NCc1cccs1)c1ccc2[nH]nc(NC(=O)c3ccc(NCC4CCCCC4)cc3)c2c1 [Example 166, 3-(4-((Cyclohexylmethyl)amino)benzamido)-N-(thiophen-2-ylmethyl)-1H-indazole-5-carboxamide]	0.26 µM	–
O=C(NCc1cccs1)c1ccc2[nH]nc(NC(=O)c3ccc([N+](=O)[O-])cc3)c2c1 [Example 203, 3-(4-Nitrobenzamido)-N-(thiophen-2-ylmethyl)-1H-indazole-5-carboxamide]	0.075 µM	–
